According to US20180153995A1, “USE OF ANTIMICROBIAL POLYMERS FOR RE-SENSITIZATION OF MICROORGANISMS UPON EMERGENCE OF RESISTANCE TO ANTI-MICROBIAL AGENTS” (Technion Research & Development Foundation Limited, priority 2008, published 2018):
Like-named read-outs stand apart in the source and are kept apart here.

Key:
[1] = tested on: MRSA 15903; assay: microbe, parasite or virus in culture; format: cell-based, Staphylococcus aureus
Procedure, shortened: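 Two-agent combinations tested against MRSA 15903; FIC index = A/MICA + B/MICB, using MICs in combination versus alone. Below 0.5 read as clear re-sensitizing, 0.5–4 marginal or null, above 4 antagonism.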

[2] = tested on: S. aureus 43300; assay: Antibiotic MIC by microdilution with or without sub-MIC polymer; format: cell-based, Staphylococcus aureus; details: no polymer (None)
[3] = tested on: S. aureus 15819; assay: as above; format: cell-based, Staphylococcus aureus; details: S. aureus 15819
[4] = tested on: S. aureus 17314; assay: as above; format: cell-based, Staphylococcus aureus; details: S. aureus 17314
[5] = tested on: E. coli 16327; assay: microbe, parasite or virus in culture
[6] = tested on: E. coli 16329; format: cell-based, Escherichia coli; details: E. coli U-16329
Procedure, shortened: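 Bacterial suspensions (100 μl) were added to 100 μl of culture medium carrying 2-fold serially diluted antibiotic together with a fraction of the polymer's MIC, or to plain medium as control. Plates were incubated 24 hours at 37° C, and proliferation was read at 620 nm against calibration standards. Starting inoculum was 10^5 bacteria per ml.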

[7] = tested on: E. coli 14182; assay: Antibiotic MIC by microdilution with or without sub-MIC polymer; format: cell-based, Escherichia coli
[8] = tested on: S. maltophila 748; assay: as above; format: cell-based, Stenotrophomonas maltophila
[9] = tested on: E. coli K-12 efflux knockout mutant; format: cell-based, Escherichia coli; details: E. coli AG100A (efflux−)
Procedure, shortened: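 Broth microdilution, inocula 10^5 bacteria/ml, 24 h at 37 °C. Growth read as OD620 against calibration standards.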

[10] = tested on: E. coli K-12 resistant wild type; format: cell-based, Escherichia coli; details: E. coli AG100 (w.t.)
[11] = +¼ MIC (1.6 μM) C12K(KNC12K)3NH2
[12] = +⅓ MIC (2.1 μM) C12K(KNC12K)3NH2
[13] = polymer at ¼ of its MIC (Table 16)
[14] = polymer at ½ of its MIC (Table 16)
[15] = polymer at ⅓ of its MIC (Table 16)

CN(C)[C@@H]1C(O)=C(C(N)=O)C(=O)[C@@]2(O)C(O)=C3C(=O)c4c(O)cccc4[C@@](C)(O)[C@H]3C[C@@H]12 [Tetracycline, tetracycline]
MIC ([1]; MRSA 15903, +¼ polymer MIC (1.6 μM) NC12(KNC12K)2NH2): 0.5 µg/mL
MIC ([1]; MRSA 15903, +½ polymer MIC (3.1 μM) NC12(KNC12K)2NH2): 0.004 µg/mL
MIC ([1]; MRSA 15903, +⅓ polymer MIC (2.1 μM) NC12(KNC12K)2NH2): 0.25 µg/mL
MIC, ¼ + MIC OAK ([1]; MRSA 15903, with C12K(KNC10K)3NH2 (SEQ ID NO: 10) at ¼ of its MIC): 1 µg/mL
MIC, ½ + MIC OAK ([1]; MRSA 15903, with C12K(KNC10K)3NH2 (SEQ ID NO: 10) at ½ of its MIC): 0.25 µg/mL
MIC, ⅓ + MIC OAK ([1]; MRSA 15903, with C12K(KNC10K)3NH2 (SEQ ID NO: 10) at ⅓ of its MIC): 1 µg/mL
MIC ([1]; S. aureus CI-15903, +polymer (¼ MIC) C12(5-ene)KKNC12KNH2): 0.5 µg/mL
MIC ([1]; S. aureus CI-15903, +polymer (½ MIC) C12(5-ene)KKNC12KNH2): 0.06 µg/mL
MIC ([1]; S. aureus CI-15903, +polymer (⅓ MIC) C12(5-ene)KKNC12KNH2): 0.1 µg/mL
MIC ([1]; Staphylococcus aureus, MRSA, 24 h, MRSA 15903, antibiotic alone (Table 22), read-out: MIC, Alone): 1 µg/mL
MIC ([1]; Staphylococcus aureus, MRSA, 24 h, MRSA 15903, antibiotic alone, read-out: MIC): 0.5 µg/mL
MIC ([1]; Staphylococcus aureus, MRSA, 24 h, S. aureus CI-15903, alone, read-out: MIC): 0.5 µg/mL
Antibiotic MIC ([2]; Table 8): 0.25 µg/mL
Antibiotic MIC ([2]; Table 9): 0.25 µg/mL
Antibiotic MIC ([2]; Table 10): 0.25 µg/mL
Antibiotic MIC ([2]; Table 11): 0.5 µg/mL
Antibiotic MIC ([2]; Table 12): 0.5 µg/mL
Antibiotic MIC ([3]; +¼ MIC (1.6 μM) C12(5-ene)KKNC12KNH2): 0.25 µg/mL
Antibiotic MIC [3, 11]: 0.5 µg/mL
Antibiotic MIC ([3]; +¼ MIC (1.6 μM) C12KKNC12KNH2): 0.5 µg/mL
Antibiotic MIC ([3]; +½ MIC (3.12 μM) C12KKNC12KNH2): 0.5 µg/mL
Antibiotic MIC [3, 12]: 0.25 µg/mL
Antibiotic MIC ([3]; +⅓ MIC (2.1 μM) C12KKNC12KNH2): 0.5 µg/mL
Antibiotic MIC ([3]; no polymer (None), Table 8): 0.25 µg/mL
Antibiotic MIC ([3]; no polymer (None), Table 11): 0.5 µg/mL
Antibiotic MIC ([3]; no polymer (None), Table 13): 0.5 µg/mL
Antibiotic MIC ([4]; +¼ MIC (1.6 μM) C12K(KNC12K)2NH2): 0.25 µg/mL
Antibiotic MIC ([4]; +¼ MIC (1.6 μM) C12KKNC12KNH2): 0.25 to 0.5 µg/mL
Antibiotic MIC ([4]; +¼ MIC (1.6 μM) C14(9-ene)KKNC12KNH2): 0.25 µg/mL
Antibiotic MIC ([4]; +½ MIC (3.12 μM) C12K(KNC12K)2NH2): 0.25 µg/mL
Antibiotic MIC ([4]; +½ MIC (3.12 μM) C12KKNC12KNH2): 0.25 to 0.5 µg/mL
Antibiotic MIC ([4]; +½ MIC (3.12 μM) C14(9-ene)KKNC12KNH2): 0.25 µg/mL
Antibiotic MIC ([4]; +⅓ MIC (2.1 μM) C12K(KNC12K)2NH2): 0.5 µg/mL
Antibiotic MIC ([4]; +⅓ MIC (2.1 μM) C12KKNC12KNH2): 0.25 to 0.5 µg/mL
Antibiotic MIC ([4]; +⅓ MIC (2.1 μM) C14(9-ene)KKNC12KNH2): 0.25 µg/mL
Antibiotic MIC ([4]; no polymer (None), Table 9): 0.25 µg/mL
Antibiotic MIC ([4]; no polymer (None), Table 10): 0.25 µg/mL
Antibiotic MIC ([4]; no polymer (None), Table 11): 0.25 to 0.5 µg/mL
Antibiotic MIC ([4]; no polymer (None), Table 12): 0.25 to 0.5 µg/mL
Antibiotic MIC ([5]; E. coli 16327, +½ MIC (3.12 μM) C14(9-ene)KKNC12KNH2): 32 µg/mL
MIC, ½ + MIC OAK ([5]; E. coli U16327, with C12K(KNC10K)3NH2 (SEQ ID NO: 10) at ½ of its MIC): 64 µg/mL
Antibiotic MIC in presence of C12K(NC8K)7NH2 (SEQ ID NO: 4), +½ MIC ([5]; E. coli U-16327, polymer at ½ of its MIC): 32 µg/mL
Antibiotic MIC ([6]; +½ MIC C12K(NC8K)5NH2): 64 µg/mL
Antibiotic MIC in presence of C12K(NC8K)7NH2 (SEQ ID NO: 4), +½ MIC ([6]; polymer at ½ of its MIC): 32 to 64 µg/mL
Antibiotic MIC ([7]; +¼ MIC C12K(NC8K)5NH2): 32 µg/mL
Antibiotic MIC ([7]; +½ MIC C12K(NC8K)5NH2): 8 to 16 µg/mL
Antibiotic MIC ([7]; +⅓ MIC C12K(NC8K)5NH2): 32 µg/mL
Antibiotic MIC, None ([7]; antibiotic alone (Table 15)): 32 to 64 µg/mL
Antibiotic MIC ([7]; no polymer (None), Table 14): 32 to 64 µg/mL
Antibiotic MIC in presence of C12K(NC8K)7NH2 (SEQ ID NO: 4), +¼ MIC ([7]; polymer at ¼ of its MIC): 32 µg/mL
Antibiotic MIC in presence of C12K(NC8K)7NH2 (SEQ ID NO: 4), +½ MIC ([7]; polymer at ½ of its MIC): 8 to 16 µg/mL
Antibiotic MIC in presence of C12K(NC8K)7NH2 (SEQ ID NO: 4), +⅓ MIC ([7]; polymer at ⅓ of its MIC): 32 µg/mL
Antibiotic MIC [8, 11]: 64 µg/mL
Antibiotic MIC ([8]; +½ MIC (3.12 μM) C12K(KNC12K)3NH2): 32 µg/mL
Antibiotic MIC [8, 12]: 64 µg/mL
Antibiotic MIC, None ([9]; antibiotic alone (Table 16)): 0.5 µg/mL
Antibiotic MIC, None ([9]; antibiotic alone (Table 17)): 0.5 µg/mL
Antibiotic MIC in presence of C12K(NC8K)7NH2 (SEQ ID NO: 4), +¼ MIC [9, 13]: 0.5 µg/mL
Antibiotic MIC in presence of C12K(NC8K)7NH2 (SEQ ID NO: 4), +½ MIC [9, 14]: 0.25 to 0.5 µg/mL
Antibiotic MIC in presence of C12K(NC8K)7NH2 (SEQ ID NO: 4), +⅓ MIC [9, 15]: 0.5 µg/mL
Antibiotic MIC in presence of C12K(NC8K)7NH2 (SEQ ID NO: 4), +¼ MIC [10, 13]: 1 to 2 µg/mL
Antibiotic MIC in presence of C12K(NC8K)7NH2 (SEQ ID NO: 4), +½ MIC [10, 14]: 0.25 to 0.5 µg/mL
Antibiotic MIC in presence of C12K(NC8K)7NH2 (SEQ ID NO: 4), +⅓ MIC [10, 15]: 0.5 µg/mL
